Values belong to the molecule of their own block, whether it stands above or below them. Activity calls are given as the source filed them.
What was measured:
Assay type in all cases: functional
Wee1-like protein kinase = Wee1-like protein kinase (Homo sapiens, UniProt P30291); assay: Navigating the Kinome. Panel member name: WEE1
[1] = molecular target: Cell division cycle 7-related protein kinase (Homo sapiens, UniProt O00311);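 note: value obtained from a kinome-wide kinase panel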
[2] = molecular target: Mitogen-activated protein kinase 13 (Homo sapiens, UniProt O15264)
[3] = molecular target: Mast/stem cell growth factor receptor Kit (Homo sapiens, UniProt P10721);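 note: KIT entry within a kinase panel assay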
Sequence of Mast/stem cell growth factor receptor Kit (P10721 whole entry): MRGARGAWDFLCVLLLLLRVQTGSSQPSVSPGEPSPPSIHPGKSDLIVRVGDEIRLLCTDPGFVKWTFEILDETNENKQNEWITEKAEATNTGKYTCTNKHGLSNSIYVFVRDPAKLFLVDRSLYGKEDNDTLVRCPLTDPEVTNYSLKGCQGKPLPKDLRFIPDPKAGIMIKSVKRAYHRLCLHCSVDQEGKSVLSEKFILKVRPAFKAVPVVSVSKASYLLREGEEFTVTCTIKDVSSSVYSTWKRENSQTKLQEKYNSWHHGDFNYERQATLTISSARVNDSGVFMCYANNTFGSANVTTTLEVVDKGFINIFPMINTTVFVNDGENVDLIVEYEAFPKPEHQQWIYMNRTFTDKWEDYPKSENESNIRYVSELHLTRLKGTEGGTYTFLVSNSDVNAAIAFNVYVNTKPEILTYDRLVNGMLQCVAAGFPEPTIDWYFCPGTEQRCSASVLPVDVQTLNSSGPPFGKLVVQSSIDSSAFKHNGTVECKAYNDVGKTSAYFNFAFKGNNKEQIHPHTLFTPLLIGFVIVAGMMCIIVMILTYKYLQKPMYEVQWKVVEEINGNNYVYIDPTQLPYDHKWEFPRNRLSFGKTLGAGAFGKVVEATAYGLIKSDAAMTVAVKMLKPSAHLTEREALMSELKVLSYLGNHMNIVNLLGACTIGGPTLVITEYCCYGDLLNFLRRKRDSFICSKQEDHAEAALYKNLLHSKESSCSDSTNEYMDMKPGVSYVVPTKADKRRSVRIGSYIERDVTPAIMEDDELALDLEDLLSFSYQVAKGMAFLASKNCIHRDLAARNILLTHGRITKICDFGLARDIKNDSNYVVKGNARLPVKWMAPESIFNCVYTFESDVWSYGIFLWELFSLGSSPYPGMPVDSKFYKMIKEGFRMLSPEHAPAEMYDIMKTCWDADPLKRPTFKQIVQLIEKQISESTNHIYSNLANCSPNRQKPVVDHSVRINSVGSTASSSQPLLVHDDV

[4] = molecular target: Glycogen synthase kinase-3 beta (Homo sapiens, UniProt P49841);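 note: value comes from a broad kinome profiling panel, with GSK3B as the panel member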
Sequence of Glycogen synthase kinase-3 beta (P49841 whole entry): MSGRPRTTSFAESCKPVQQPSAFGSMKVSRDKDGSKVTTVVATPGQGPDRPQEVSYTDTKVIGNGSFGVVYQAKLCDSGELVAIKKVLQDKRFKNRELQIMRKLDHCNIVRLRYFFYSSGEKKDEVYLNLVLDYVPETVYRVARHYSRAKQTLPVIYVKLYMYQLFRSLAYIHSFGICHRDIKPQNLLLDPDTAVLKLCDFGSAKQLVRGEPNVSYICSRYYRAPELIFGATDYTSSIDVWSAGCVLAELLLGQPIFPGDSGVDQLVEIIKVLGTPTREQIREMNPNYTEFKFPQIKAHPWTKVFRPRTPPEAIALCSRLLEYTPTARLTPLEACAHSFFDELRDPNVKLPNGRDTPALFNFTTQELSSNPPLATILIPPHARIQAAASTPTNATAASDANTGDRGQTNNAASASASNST

[5] = molecular target: Interleukin-1 receptor-associated kinase 4 (Homo sapiens, UniProt Q9NWZ3)
[6] = molecular target: Homeodomain-interacting protein kinase 2 (Homo sapiens, UniProt Q9H2X6);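 note: measured within a kinome-wide kinase profiling panel, HIPK2 being one panel member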
[7] = molecular target: Dual specificity protein kinase CLK4 (Homo sapiens, UniProt Q9HAZ1)
[8] = molecular target: Serine/threonine-protein kinase pim-1 (Homo sapiens, UniProt P11309)
Sequence of Serine/threonine-protein kinase pim-1 (P11309 whole entry): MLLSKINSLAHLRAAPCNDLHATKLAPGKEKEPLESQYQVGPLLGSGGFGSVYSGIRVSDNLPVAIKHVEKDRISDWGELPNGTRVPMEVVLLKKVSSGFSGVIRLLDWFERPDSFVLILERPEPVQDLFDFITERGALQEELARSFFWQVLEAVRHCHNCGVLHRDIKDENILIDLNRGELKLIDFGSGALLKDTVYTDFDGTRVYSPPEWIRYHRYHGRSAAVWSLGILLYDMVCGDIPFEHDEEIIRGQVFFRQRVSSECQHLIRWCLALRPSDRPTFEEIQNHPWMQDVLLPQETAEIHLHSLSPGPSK

[9] = molecular target: Mitogen-activated protein kinase kinase kinase kinase 4 (Homo sapiens, UniProt O95819)
Sequence of Mitogen-activated protein kinase kinase kinase kinase 4 (O95819 whole entry): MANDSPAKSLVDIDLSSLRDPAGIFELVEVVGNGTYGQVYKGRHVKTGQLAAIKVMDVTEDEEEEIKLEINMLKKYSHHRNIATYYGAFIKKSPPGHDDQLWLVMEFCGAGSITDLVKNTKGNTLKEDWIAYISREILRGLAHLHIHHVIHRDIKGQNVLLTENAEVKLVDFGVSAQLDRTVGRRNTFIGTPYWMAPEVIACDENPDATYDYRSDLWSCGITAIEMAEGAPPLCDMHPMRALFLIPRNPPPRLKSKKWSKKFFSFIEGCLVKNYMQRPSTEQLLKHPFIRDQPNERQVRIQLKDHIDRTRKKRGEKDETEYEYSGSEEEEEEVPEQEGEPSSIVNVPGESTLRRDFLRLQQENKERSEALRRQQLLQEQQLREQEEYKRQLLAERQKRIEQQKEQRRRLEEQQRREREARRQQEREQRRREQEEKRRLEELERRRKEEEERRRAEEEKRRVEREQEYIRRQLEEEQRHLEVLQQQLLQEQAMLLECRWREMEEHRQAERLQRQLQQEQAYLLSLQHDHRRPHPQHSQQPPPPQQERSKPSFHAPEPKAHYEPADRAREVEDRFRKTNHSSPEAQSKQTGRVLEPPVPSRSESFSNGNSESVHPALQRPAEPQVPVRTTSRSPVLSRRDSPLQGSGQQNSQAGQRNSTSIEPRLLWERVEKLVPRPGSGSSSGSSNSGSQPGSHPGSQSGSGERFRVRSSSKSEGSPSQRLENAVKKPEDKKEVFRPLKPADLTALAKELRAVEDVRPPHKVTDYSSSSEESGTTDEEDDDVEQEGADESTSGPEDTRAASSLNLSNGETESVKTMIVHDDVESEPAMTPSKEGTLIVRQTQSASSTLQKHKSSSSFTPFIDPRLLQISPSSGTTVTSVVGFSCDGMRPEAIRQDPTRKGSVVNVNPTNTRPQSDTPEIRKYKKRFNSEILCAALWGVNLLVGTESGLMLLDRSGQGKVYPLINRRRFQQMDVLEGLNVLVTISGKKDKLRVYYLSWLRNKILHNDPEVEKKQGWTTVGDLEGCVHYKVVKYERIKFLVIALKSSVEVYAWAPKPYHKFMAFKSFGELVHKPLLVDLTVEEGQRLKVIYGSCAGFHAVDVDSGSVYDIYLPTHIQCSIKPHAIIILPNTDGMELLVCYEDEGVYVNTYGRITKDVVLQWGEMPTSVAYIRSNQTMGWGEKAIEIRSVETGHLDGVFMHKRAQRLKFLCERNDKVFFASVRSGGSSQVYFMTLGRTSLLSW

[10] = molecular target: cAMP-dependent protein kinase catalytic subunit alpha (Homo sapiens, UniProt P17612)
[11] = molecular target: Cyclin-dependent kinase 8 (Homo sapiens, UniProt P49336); assay: Navigating the Kinome. Panel member name: CDK8
Sequence of Cyclin-dependent kinase 8 (P49336 whole entry): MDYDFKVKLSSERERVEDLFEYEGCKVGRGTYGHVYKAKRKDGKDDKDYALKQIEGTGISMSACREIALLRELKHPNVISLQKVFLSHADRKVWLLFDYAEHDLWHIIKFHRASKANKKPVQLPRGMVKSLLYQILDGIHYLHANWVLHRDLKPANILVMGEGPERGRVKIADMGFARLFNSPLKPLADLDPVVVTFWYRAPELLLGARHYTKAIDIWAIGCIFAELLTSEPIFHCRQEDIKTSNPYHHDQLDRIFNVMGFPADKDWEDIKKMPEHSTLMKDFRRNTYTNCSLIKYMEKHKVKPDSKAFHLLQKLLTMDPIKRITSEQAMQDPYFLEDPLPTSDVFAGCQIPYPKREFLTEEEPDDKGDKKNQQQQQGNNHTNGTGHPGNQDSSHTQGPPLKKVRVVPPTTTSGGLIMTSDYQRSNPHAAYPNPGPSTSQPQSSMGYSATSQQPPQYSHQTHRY

[12] = molecular target: Cyclin-dependent kinase 19 (Homo sapiens, UniProt Q9BWU1); assay: Navigating the Kinome. Panel member name: CDC2L6
[13] = molecular target: Neuropeptides B/W receptor type 1 (Homo sapiens, UniProt P48145); assay: human NPBW1 receptor blockade, IC50 – cell-based, fluorescence, dose response, set 5, late-stage follow-up (AID 588566)
Sequence of Neuropeptides B/W receptor type 1 (P48145 whole entry): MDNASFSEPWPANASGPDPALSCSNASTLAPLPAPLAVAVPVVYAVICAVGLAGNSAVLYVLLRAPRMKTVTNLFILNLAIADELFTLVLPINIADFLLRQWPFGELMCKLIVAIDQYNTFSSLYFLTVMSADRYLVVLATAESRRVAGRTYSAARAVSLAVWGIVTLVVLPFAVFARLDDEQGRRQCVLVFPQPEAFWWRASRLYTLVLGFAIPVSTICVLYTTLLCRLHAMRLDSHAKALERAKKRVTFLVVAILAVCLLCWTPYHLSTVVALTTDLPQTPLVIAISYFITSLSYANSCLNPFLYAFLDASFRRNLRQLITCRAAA

[14] = molecular target: Melanin-concentrating hormone receptor 1 (Homo sapiens, UniProt Q99705); assay: Late-stage fluorescence-based counterscreen for antagonists of the G-protein coupled receptor 7 (GPR7): cell-based dose response assay to identify antagonists of the melanin-concentrating hormone receptor 1 (MCHR1) Set 5.

Sequence of Cell division cycle 7-related protein kinase (O00311 whole entry): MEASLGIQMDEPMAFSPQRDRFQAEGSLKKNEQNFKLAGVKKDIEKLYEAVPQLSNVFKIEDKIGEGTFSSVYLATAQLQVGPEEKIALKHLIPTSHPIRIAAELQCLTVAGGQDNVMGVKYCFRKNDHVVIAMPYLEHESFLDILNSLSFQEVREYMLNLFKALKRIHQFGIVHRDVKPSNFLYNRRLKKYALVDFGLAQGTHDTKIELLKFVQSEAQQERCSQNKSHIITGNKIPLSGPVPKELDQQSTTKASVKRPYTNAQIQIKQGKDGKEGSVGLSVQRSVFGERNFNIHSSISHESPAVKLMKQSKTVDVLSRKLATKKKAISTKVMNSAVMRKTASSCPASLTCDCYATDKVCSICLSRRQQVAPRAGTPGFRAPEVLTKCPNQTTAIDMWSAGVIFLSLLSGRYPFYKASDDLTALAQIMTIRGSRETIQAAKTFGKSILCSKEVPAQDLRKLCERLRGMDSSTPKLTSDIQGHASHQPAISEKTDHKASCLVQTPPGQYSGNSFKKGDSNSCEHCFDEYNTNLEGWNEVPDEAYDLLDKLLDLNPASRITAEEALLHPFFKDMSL
Sequence of Wee1-like protein kinase (P30291 whole entry): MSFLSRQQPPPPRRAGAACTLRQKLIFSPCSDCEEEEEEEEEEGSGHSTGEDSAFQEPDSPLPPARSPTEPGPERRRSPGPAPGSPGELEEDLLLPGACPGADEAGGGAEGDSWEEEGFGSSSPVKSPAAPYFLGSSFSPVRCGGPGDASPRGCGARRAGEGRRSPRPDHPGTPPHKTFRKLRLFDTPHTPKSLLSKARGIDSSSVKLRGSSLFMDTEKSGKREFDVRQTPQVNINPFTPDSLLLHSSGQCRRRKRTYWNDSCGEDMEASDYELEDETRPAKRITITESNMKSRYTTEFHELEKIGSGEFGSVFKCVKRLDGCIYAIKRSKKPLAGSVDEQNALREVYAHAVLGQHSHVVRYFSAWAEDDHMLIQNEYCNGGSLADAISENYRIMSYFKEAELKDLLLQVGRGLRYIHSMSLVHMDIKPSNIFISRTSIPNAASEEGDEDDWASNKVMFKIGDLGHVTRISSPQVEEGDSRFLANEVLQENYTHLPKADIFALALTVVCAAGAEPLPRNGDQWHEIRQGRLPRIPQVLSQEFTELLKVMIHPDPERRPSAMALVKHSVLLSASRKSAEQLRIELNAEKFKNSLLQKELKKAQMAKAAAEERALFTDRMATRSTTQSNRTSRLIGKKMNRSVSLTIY

Ki [4]: 0.158 µM (active) | Ki [5]: 0.0631 µM (active) | Ki [6]: 0.2 µM (active) | Ki [7]: 0.01 µM (active) | Ki [8]: 3.98 µM (active) | Ki [9]: 0.0398 µM (active) | Ki [1]: 0.0126 µM (active) | Ki [10]: 2 µM (active)
Compound: NC(=O)c1ccc(Nc2ncnc3[nH]cc(-c4ccccc4)c23)cc1

Ki [11]: 3.98 µM (active) | Ki [12]: > 100 µM (inactive)
Compound: Nc1nsc2cccc(C(=O)Nc3cccc(CNC(=O)Nc4cccc(F)c4)c3)c12

More lines, now with the values behind:

Compound: c1cc(NC2CCCCC2)nc(Nc2ccc3cn[nH]c3c2)n1
Ki (Wee1-like protein kinase): 1 µM (active) | Ki [1]: 2 µM (active)

Compound: COc1cc(-c2nn(C3CCC(N4CCN(C(C)=O)CC4)CC3)c3ncnc(N)c23)ccc1NC(=O)c1cc2ccccc2n1C (stereo unspecified)
Ki [2]: > 7.94 µM (inactive) | Ki [3]: > 1.26 µM (inactive)

Compound: CCOC(=O)C(c1ccccn1)c1c(Cl)cnn(Cc2cccc3ccccc23)c1=O (stereo unspecified)
IC50 [13]: > 20 µM (inactive) | IC50 [14]: 17.6 µM (inactive)
